Laboratory results from ChEMBL document CHEMBL1201862, “PubChem BioAssay data set” (2004).
Counter-ions that a name gives are not always drawn.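 Each compound was tested at five concentrations against cells in 96-well plates for 48 hours. Here, GI50 denotes the concentration required for 50% inhibition of growth.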 Active and inactive are the calls of the source. No stated cut-off is given here; in the data, active = GI50 up to about 1.1 µM and inactive = higher.

Legend:
Assay in all cases: NCI anticancer screen, dose series, 48 h
SNB-78 = test system: SNB-78
KM-20L2 = test system: KM-20L2
DMS-114 = test system: DMS-114
XF498 = test system: XF498
LXFL 529 = test system: LXFL 529
RXF 631 = test system: RXF 631
HOP-18 = test system: HOP-18
DLD-1 = test system: DLD-1
DMS-273 = test system: DMS-273

Row | SMILES | GI50 (SNB-78) | GI50 (KM-20L2) | GI50 (DMS-114) | GI50 (XF498) | GI50 (LXFL 529) | GI50 (RXF 631) | GI50 (HOP-18) | GI50 (DLD-1) | GI50 (DMS-273)
1 | NNC(=O)C(=O)N/N=C(\CCCC(=O)Nc1ccc(Cl)cc1)CC(=O)c1ccc(F)cc1 | > 100 µM (inactive) | 7.31 µM (inactive) | > 100 µM (inactive) | > 100 µM (inactive) | 67.1 µM (inactive) | > 100 µM (inactive) | 52.8 µM (inactive) | > 100 µM (inactive) | –
2 | CC1CC(=O)CC[C@@H]1OCc1ccccc1 (stereo partly specified) | > 100 µM (inactive) | > 100 µM (inactive) | 94.2 µM (inactive) | > 100 µM (inactive) | – | – | > 100 µM (inactive) | > 100 µM (inactive) | > 100 µM (inactive)
3 | CCc1cccc(C)c1NC(=O)CCc1nnc(S)[nH]1 | > 100 µM (inactive) | > 100 µM (inactive) | > 100 µM (inactive) | > 100 µM (inactive) | > 100 µM (inactive) | – | > 100 µM (inactive) | > 100 µM (inactive) | –
4 | Cc1nc(-n2nc(-c3ccccc3)cc2-c2ccccc2)sc1C(=O)/C=C/c1ccccc1 | > 100 µM (inactive) | > 100 µM (inactive) | – | – | – | > 100 µM (inactive) | > 100 µM (inactive) | > 100 µM (inactive) | > 100 µM (inactive)
5 | CCOP(=O)(C/C(O)=C1\C(=O)C(CCCCNC(=O)OC(C)(C)C)N(Cc2ccccc2)C1=O)OCC (stereo unspecified) | – | > 100 µM (inactive) | > 100 µM (inactive) | – | > 100 µM (inactive) | – | 80.5 µM (inactive) | > 100 µM (inactive) | > 100 µM (inactive)
6 | CCOC(=O)c1cc2c(nc1N)-c1ncccc1CC2 | > 100 µM (inactive) | 37.2 µM (inactive) | 8.95 µM (inactive) | – | 50.7 µM (inactive) | > 100 µM (inactive) | > 100 µM (inactive) | 52.7 µM (inactive) | 43.5 µM (inactive)
7 | O=C1C(Br)=CC2(C=C1Br)CCNC1=C2C2=NCCc3c[nH]c(c32)C1=O | 0.2 µM (active) | 0.084 µM (active) | 0.0401 µM (active) | 0.188 µM (active) | – | – | 1.98 µM (inactive) | 0.0182 µM (active) | 0.158 µM (active)
8 | CN1CCCNCCN(CCc2ccccn2)CCCN(C)CC1 | > 100 µM (inactive) | > 100 µM (inactive) | > 42.6 µM (inactive) | > 100 µM (inactive) | > 75.3 µM (inactive) | > 100 µM (inactive) | > 100 µM (inactive) | > 88.1 µM (inactive) | 27.8 µM (inactive)
9 | CC(=O)N(C)c1ccc(Nc2cc(C)nc3ccc4nc[nH]c4c23)cc1 [ACODAZOLE HYDROCHLORIDE] | 14.4 µM (inactive) | 11.9 µM (inactive) | 7.08 µM (inactive) | 2.29 µM (inactive) | – | – | 12.4 µM (inactive) | 19.4 µM (inactive) | 9.38 µM (inactive)
10 | C/C(=N\NS(=O)(=O)c1ccc(C)cc1)C(CN(C)C)C(c1ccccc1)c1c(O)c2ccccc2oc1=O (stereo unspecified) | > 100 µM (inactive) | > 100 µM (inactive) | – | > 100 µM (inactive) | > 100 µM (inactive) | > 100 µM (inactive) | > 100 µM (inactive) | > 100 µM (inactive) | –
11 | O=C(c1cc2ccccc2o1)N(Cc1ccccc1)c1ccccc1 | 63.1 µM (inactive) | 17.3 µM (inactive) | 19.3 µM (inactive) | 23.3 µM (inactive) | 30.8 µM (inactive) | 26.9 µM (inactive) | 30.5 µM (inactive) | 22.8 µM (inactive) | 30.8 µM (inactive)
12 | O=C(Nc1ccc([N+](=O)[O-])cc1)C1C(=O)C(=O)N(c2ccc([N+](=O)[O-])cc2)C1=O (stereo unspecified) | > 100 µM (inactive) | 97.3 µM (inactive) | 17.1 µM (inactive) | – | 17.7 µM (inactive) | > 100 µM (inactive) | > 100 µM (inactive) | > 100 µM (inactive) | 11.6 µM (inactive)
13 | CC1CCC(=O)NCCCCC(=O)N1 (stereo unspecified) | > 100 µM (inactive) | > 100 µM (inactive) | > 100 µM (inactive) | – | > 100 µM (inactive) | – | – | > 100 µM (inactive) | > 100 µM (inactive)
14 | CCN(CC)CCNC(=O)c1cccc2cc3ccccc3nc12 | 7.69 µM (inactive) | – | 5.89 µM (inactive) | – | – | 4.6 µM (inactive) | 15.8 µM (inactive) | 3.57 µM (inactive) | 3.95 µM (inactive)
